Test results taken from patent US5053006A, “Method for the permanent occlusion of arteries” (priority 1990, dated 1991).
Read-outs that look alike come from different tables or passages of the source.

Experiments:
[1] = test system: corneal neovasculature; assay type: in vivo, New Zealand albino rabbit
Excerpt: The corneal and limbal epithelia, along with the conjunctival epithelium 2-3 mm beyond the limbus, were removed from New Zealand albino rabbits by a combination of surgical scraping and n-heptanol debridement. The denuded corneal surfaces were then healed by the remaining conjunctival epithelium, of which 65% contained extensive neovascularization. From this group, 16 corneas with neovascularization persistent for about 20 months were subjected to photothrombotic treatment.
Isotonic saline solution was used as a control solution.
After anesthesia with intramuscular injection of xylazine (10 mg/kg bw) and ketamine (10 mg/kg bw), the rabbits were injected intravenously with either 2.5 ml of isotonic saline solution or rose bengal saline solution at a dosage of 40 mg/kg bw. Irradiation of corneal vessels was carried out with an argon ion laser (Model 95, Cooper LaserSonics, Fremont, Calif.) operated at 514.5 nm, as described by Mendelsohn et al. (Arch. Opthalmol., 105:983-988, 1987). The beam focusing apparatus was mounted in an X-Y positioning device attached to a rotary turntable, both with micrometer precision (Daedal, Inc., Harrison City, Pa.). With this apparatus, beam positioning stability and reproducibility of incident intensity were improved because irradiations were administered during the open cycle of the mechanical shutter. The incident power level was set at 200 mW; allowing for reflection losses in the fiber optic focusing system, the incident power was reduced to 130 mW. At the focal point, the laser beam was 63 μm in diameter. Each irradiation was 0.2 second in pulse duration. During the entire procedure, the corneas were continuously rinsed with a balanced salt solution delivered through a peristatic pump and the temperature of the solution was maintained at 37° C. with a water bath. After laser irradiation, topical antibiotics and steroids were applied for two days.
Routine external photography and corneal fluorescein angiography were performed to document occlusion of the corneal blood vessels and the duration of their occlusion. Angiograms were taken with a ceiling-mounted Zeiss surgical photoscope after injection of 1 ml of 10 mg/ml fluorescein solution. Baseline angiography was performed two or three days before laser irradiation to avoid possible photosensitizing effects from the fluorescein dye used for angiography. After photothrombotic treatment, angiograms were taken on scheduled dates in order to monitor the duration of the occlusive effect. Late phase (5 minutes after injection) fluorescein angiograms were used for comparison.
Various dosages of rose bengal solution were used to investigate the efficacy of photothrombosis.

[2] = test system: corneal blood vessels; assay type: in vivo, New Zealand albino rabbit
Excerpt: Both corneal and limbal epithelia, along with the conjunctival epithelium 2-3 mm beyond the limbus, were removed from New Zealand albino rabbit eyes by n-heptanol debridement and surgical scraping (Huang et al., Ophthalmology, 95:228-235, 1988, the disclosure of which is hereby incorporated by reference and relied upon). The denuded corneas were healed by the remaining conjunctival epithelium within 9 to 12 days, of which 65% became extensively vascularized two to three weeks after healing. Sixteen corneas with persistent neovascularization of 20 months duration were subjected to photothrombotic treatment.
Occlusion of corneal blood vessels was achieved by intravenous injection of the rose bengal solution at a dosage of 40 mg/kg body weight followed by irradiation of the blood vessels with an argon green laser beam (514.5 nm in wavelength) set at a power of 130 mW, beam spot size of 63 μm in diameter, and duration of 0.2 second. During the irradiation, the corneal surface was rinsed with a balanced salt solution maintained at 37° C. to ensure the efficacy of photothrombosis. The laser beam was applied to the limbus at the arborization point of each feeder vessel. In 12 corneas, the blood vessels on the upper half of the cornea were photothrombosed and those on the lower half were left untreated and used as an internal control. In the remaining four corneas, the blood vessels on the entire cornea were treated. Each blood vessel was occluded within 10 consecutive shots of irradiation. For all corneas, the treatment was completed within 30 minutes after initial injection of rose bengal solution. After laser irradiation, topical antibiotics and steroids were applied for two days. This treatment was similar to that described in Watson et al., Lasers Surg. Med., 7:127, 1987.
External ocular examinations were performed to identify changes on the ocular surface before and after photothrombosis. Surface smoothness was examined by routine slitlamp biomicroscopy. External photographs were taken to document corneal clarity and regression of the vessels.
Occlusion of the corneal blood vessels and the duration of occlusion were further studied by routine corneal fluorescein angiography using an intravenous injection of 1 ml of 10 mg/ml of sodium fluorescein. Photographs and angiograms were taken with a Zeiss surgical microscope. Baseline angiography was performed two to three days before photothrombosis to avoid possible photosensitizing effects from the fluorescein used for angiography. Follow-up angiograms were taken on the scheduled dates to document the occlusive effect and its duration. Late phase fluorescein angiograms (5 minutes after injection) were chosen for comparisons. After occlusion was confirmed by angiography, the rabbits were sacrificed on the prescheduled date and corneal buttons were obtained and subjected to epithelial differentiation studies. The total follow-up duration was 18 weeks.

[3] = rabbit, in vivo; cited from earlier work
[4] = rabbit, in vivo

SMILES: O=C([O-])c1c(Cl)c(Cl)c(Cl)c(Cl)c1-c1c2cc(I)c(=O)c(I)c-2oc2c(I)c([O-])c(I)cc12.[Na+].[Na+] [rose bengal]
- Total Laser Shots to Occlude each Vessel ([1]; 4 mg/kg BW i.v., duration 0-10 min, means ± s.d.): 33 ± 8
- Total Laser Shots to Occlude each Vessel ([1]; 4 mg/kg BW i.v., duration 10-20 min, means ± s.d.): 53 ± 8
- Total Laser Shots to Occlude each Vessel ([1]; 4 mg/kg BW i.v., duration 20-30 min, means ± s.d.): 81 ± 11
- Total Laser Shots to Occlude each Vessel ([1]; 4 mg/kg BW i.v., duration 30-40 min): > 100
- Total Laser Shots to Occlude each Vessel ([1]; 4 mg/kg BW i.v., duration 40-50 min): N.O.
- Total Laser Shots to Occlude each Vessel ([1]; 4 mg/kg BW i.v., duration 50-60 min): N.O.
- shots required to occlude blood vessels ([1]; 4 mg/kg bw): more than 100 shots
- time window in which vessels could still be occluded ([1]; 4 mg/kg bw, sufficient shots): ≤ 30 min
- Total Laser Shots to Occlude each Vessel ([1]; 8 mg/kg BW i.v., duration 0-10 min, means ± s.d.): 13 ± 4
- Total Laser Shots to Occlude each Vessel ([1]; 8 mg/kg BW i.v., duration 10-20 min, means ± s.d.): 19 ± 1
- Total Laser Shots to Occlude each Vessel ([1]; 8 mg/kg BW i.v., duration 20-30 min, means ± s.d.): 30 ± 4
- Total Laser Shots to Occlude each Vessel ([1]; 8 mg/kg BW i.v., duration 30-40 min, means ± s.d.): 51 ± 7
- Total Laser Shots to Occlude each Vessel ([1]; 8 mg/kg BW i.v., duration 40-50 min, means ± s.d.): 65 ± 6
- Total Laser Shots to Occlude each Vessel ([1]; 8 mg/kg BW i.v., duration 50-60 min, means ± s.d.): 85 ± 10
- shots per target vessel required for occlusion ([1]; 8 mg/kg bw or higher): < 20 shots
- Total Laser Shots to Occlude each Vessel ([1]; 16 mg/kg BW i.v., duration 0-10 min, means ± s.d.): 8 ± 3
- Total Laser Shots to Occlude each Vessel ([1]; 16 mg/kg BW i.v., duration 10-20 min, means ± s.d.): 9 ± 2
- Total Laser Shots to Occlude each Vessel ([1]; 16 mg/kg BW i.v., duration 20-30 min, means ± s.d.): 10 ± 2
- Total Laser Shots to Occlude each Vessel ([1]; 16 mg/kg BW i.v., duration 30-40 min, means ± s.d.): 13 ± 3
- Total Laser Shots to Occlude each Vessel ([1]; 16 mg/kg BW i.v., duration 40-50 min, means ± s.d.): 20 ± 4
- Total Laser Shots to Occlude each Vessel ([1]; 16 mg/kg BW i.v., duration 50-60 min, means ± s.d.): 32 ± 5
- Total Laser Shots to Occlude each Vessel ([1]; 40 mg/kg BW i.v., duration 0-10 min, means ± s.d.): 5 ± 1
- Total Laser Shots to Occlude each Vessel ([1]; 40 mg/kg BW i.v., duration 10-20 min, means ± s.d.): 5 ± 1
- Total Laser Shots to Occlude each Vessel ([1]; 40 mg/kg BW i.v., duration 20-30 min, means ± s.d.): 6 ± 1
- Total Laser Shots to Occlude each Vessel ([1]; 40 mg/kg BW i.v., duration 30-40 min, means ± s.d.): 8 ± 2
- Total Laser Shots to Occlude each Vessel ([1]; 40 mg/kg BW i.v., duration 40-50 min, means ± s.d.): 10 ± 3
- Total Laser Shots to Occlude each Vessel ([1]; 40 mg/kg BW i.v., duration 50-60 min, means ± s.d.): 15 ± 4
- corneal fluorescein angiography ([1]; after photothrombosis): completely occluded without any dye leakage
- recanalization / new vessel formation ([1]; four-month study period): without recanalization or stimulation of new vessel formation elsewhere
- involution of occluded corneal vessels ([1]; one week after irradiation): gradually involuted
- conjunctival side effect ([1]; rabbit, in vivo, 40 mg/kg): edematous and slightly pinkish in color
- consecutive shots to occlude each blood vessel ([2]; 40 mg/kg i.v., 130 mW, 0.2 second): ≤ 10 shots
- dye leakage in angiograms, treated areas ([2]; follow-up angiograms): free of dye leakage
- regression of occluded corneal blood vessels ([2]; four days after treatment): gradually regressed
- epithelial breakdown ([2]; rabbit, in vivo): No epithelial breakdown was observed
- persistence of hemorrhagic spots ([2]; rabbit, in vivo): two to three
- retention of rose bengal in corneas ([2]; rabbit, in vivo): all 16 corneas were clear of retained rose bengal
- occlusion of treated vessels ([2]; two corneas, 18 weeks): all treated vessels remained occluded without recanalization, and no new vessel growth elsewhere was observed
- half-life in blood [3]: three
- external examination, discoloration [4]: slightly pinkish discoloration of the mucosal surfaces
- lethargy or change of appetite [4]: Neither lethargy nor change of appetite was noted
- blood chemistry overall ([4]; 40 mg/kg): within the normal range except for a small number in the group that received the highest dosage
- long-term systemic toxicity ([4]; iv): does not result in long-term systemic toxicity
